Article PMC13489962, “Small-molecule modulation of β-arrestins” (Nature, 2026)
“And” between values parts separate entries of the source, which are not always exact repeats. Equal values may be shown once. “Also recorded” adds a separate entry of the source.

Columns and labels:
βARR1 = target: T1, βARR1 (Rattus norvegicus, UniProt P29066); assay: ITC binding to βARR1; conditions: for Kd: one-site model
T1 construct: βARR1 or βARR2 construct, with their C terminus truncated (at amino acid 393 or 394, respectively); GST (pGEX4T1) (N, cleaved yes); made in house; host or cells: E. coli BL21 (DE3) pLysS
Experimental: The expression and purification of β-arrestins have been described previously[44],[62]–[64]. In brief, E. coli BL21 (DE3) pLysS cells (New England Biolabs: C2527I) carrying pGEX4T1-Rattus norvegicus βARR1 or βARR2 construct, with their C terminus truncated (at amino acid 393 or 394, respectively), were cultured in Terrific Broth (Teknova) medium at 37 °C. After OD600 reached 0.6–0.8, the cells were induced with 0.1 mM isopropyl-β-D-thiogalactopyranoside (IPTG) at 18 °C overnight. Bacteria were collected by centrifugation (4,000 rpm), and cell pellets were resuspended in lysis buffer (20 mM HEPES, pH 8, 150 mM NaCl, 10% glycerol, 1 mM EDTA, 0.2 mM dithiothreitol (DTT), 1 mM phenylmethylsulfonyl fluoride, and 1 mM benzamidine) at 4 °C for 1 h. Cell suspensions were sonicated, centrifuged (14,000 rpm, 30 min, 4 °C), and the supernatant was loaded onto pre-equilibrated glutathione–agarose resin (GoldBio). After 3 h of binding at 4 °C, the beads were washed, and thrombin was added for overnight cleavage. The proteins were further purified by anion exchange chromatography followed by size-exclusion chromatography using a Superdex 200 Increase 10/300 GL column on an ÄKTA FPLC system (GE Healthcare). Eluted fractions were analysed by SDS–PAGE, pooled, concentrated using 30 kDa MWCO Amicon Ultra-15 Centrifugal Filter devices, flash-frozen in liquid nitrogen, and stored in aliquots at −80 °C. The same rat βARR1 constructs with mutations (L129A, L129S, L129G, P131A, P133A, E134A, D135A, K138A, C140A, Y249A, C251A, E283A, K284A and R285A) were generated and purified in a similar manner. Recombinant Gα subunits (Gαs, Gαq and Gαi) were purified as GST fusion proteins using glutathione–agarose affinity chromatography as previously described. The heterotrimeric Gs protein complex, composed of Gαs, Gβ1 and Gγ2 subunits, was expressed in Sf9 cells using the baculovirus expression system and purified as previously described. M2R expression, purification and reconstitution into high-density lipoprotein (HDL) particles were performed as previously described. ERK2, SRC, p38α and JNK3 kinases were expressed and purified using previously established protocols[6],[16]. Protein concentrations for each protein were determined by ultraviolet absorption at 280 nm and extinction coefficients estimated using the ExPASy ProtParam tool[67].
ITC measurements were performed on a MicroCal iTC200 system at 25 °C. Prior to ITC experiments, all proteins (βARR1, βARR2 or βARR1 mutants) were extensively dialysed against 20 mM HEPES (pH 7.4), 100 mM NaCl, and 3 μM TCEP. Protein concentrations were determined by spectrophotometry at 280 nm, using extinction coefficients calculated from each protein sequence via the ProtParam program. The dialysis buffer was used to dilute DMSO stock solutions of β-arrestin small-molecule modulators to their final concentrations for measurements. For each ITC experiment, β-arrestin modulators (Cmpd-5 at 350 μM, Cmpd-46 at 450 μM, and Cmpd-64 at 450 μM) were loaded into the syringe and titrated into the calorimetric cell containing βARR1, βARR1 mutants or βARR2 (at about 30–40 μM, depending on the protein and experiment). Additional ITC experiments were also performed using purified GST-fused Gα subunits (Gαs, Gαq and Gαi; about 30 μM) and Gαiβγ heterotrimer (about 30 μM). Gα subunits were prepared in the same buffer (20 mM HEPES, pH 7.4, 100 mM NaCl, 3 μM TCEP), whereas the Gαiβγ heterotrimer was maintained in buffer supplemented with 0.05% DDM and 10 μM GDP, with matched DMSO carrier conditions. Modulators (300 μM) or corresponding DMSO controls were loaded and titrated as described above. The reference cell was filled with distilled water. In all experiments, the titration sequence typically consisted of an initial 0.4 μl injection, followed by 19 injections of 2 μl each, with a 180-s interval between injections to allow thermal power to return to baseline. […]

[1] = system: AT1R desensitization (Ca2+); assay: Ca2+ mobilization in HEK293 cells stably expressing AT1R; type: cell-based, human; conditions: 10 μM, 30 min, ANGII 30 pM
Experimental: Intracellular (Ca^2+) release was measured using the FLIPR Calcium 6 assay kit with a FlexStation 3 microplate reader, following the manufacturer’s instructions (Molecular Devices) and as described previously. In brief, HEK293 cells stably expressing human angiotensin II type 1 receptor (AT1R), parental HEK293 cells transiently expressing AT1R, or HEK293 CRISPR–Cas9 βARR1/2-knockout cells transiently expressing AT1R were seeded in poly-D-lysine-coated, black 96-well assay plates at a density of 40,000 cells per well and incubated for 24 h. On the day of the experiment, cell plates were loaded with FLIPR Calcium 6 reagents and treated with β-arrestin small-molecule modulators (10 μM) or vehicle (DMSO) for 30 min. After establishing basal fluorescence (F0), the cells were treated with the agonist ANGII (30 pM for stably expressing AT1R or 120 pM for transiently expressing AT1R) while fluorescence intensity (F) was monitored in real time. These sub-maximal ANGII concentrations were empirically optimized to elicit moderate, temporally resolved Ca^2+ transients, allowing sufficient time for β-arrestin-mediated desensitization to develop prior to the peak response. The complete Ca^2+ transient profile was quantified by calculating the AUC over time. AUC values were normalized to the response to ANGII alone (set as 100%) to compare the effects of modulators relative to the agonist-alone control.

[2] = system: β-arrestin-dependent ERK1/2 activation downstream of β2AR; assay: Carvedilol-stimulated ERK1/2 phosphorylation in β2AR HEK293 cells; type: cell-based; conditions: 30 μM; carvedilol 10 μM, 5 min
Experimental: To evaluate the effect of small-molecule modulators on β-arrestin-dependent ERK1/2 signalling, HEK293 cells stably expressing β2AR were serum-starved for 6 h (refs. [34],[75]), then pretreated with β-arrestin modulators (30 μM) or vehicle for 20 min at 37 °C. Cells were subsequently stimulated with carvedilol (10 μM, 5 min), a β-arrestin-biased agonist known to promote ERK1/2 phosphorylation via β-arrestin scaffolding of RAF–MEK–ERK signalling components. Cells were lysed, sonicated (15 s), and centrifuged at 14,000g for 15 min at 4 °C. Equal amounts of total protein were resolved by SDS–PAGE on 4–20% Tris-Glycine gels (Thermo Fisher Scientific), transferred to nitrocellulose or PVDF membranes, and immunoblotted with anti–phospho-ERK1/2 (1:2,000; Cell Signaling) and total ERK1/2 (1:10,000; Millipore Sigma). HRP-conjugated secondary antibodies were used for detection. Protein bands were visualized using Pierce SuperSignal West Pico ECL substrate (Thermo Fisher Scientific), imaged on a ChemiDoc XRS system (Bio-Rad) and quantified by densitometry using ImageLab (Bio-Rad). Data were analysed using GraphPad Prism.

T1 sequence (P29066 1-393): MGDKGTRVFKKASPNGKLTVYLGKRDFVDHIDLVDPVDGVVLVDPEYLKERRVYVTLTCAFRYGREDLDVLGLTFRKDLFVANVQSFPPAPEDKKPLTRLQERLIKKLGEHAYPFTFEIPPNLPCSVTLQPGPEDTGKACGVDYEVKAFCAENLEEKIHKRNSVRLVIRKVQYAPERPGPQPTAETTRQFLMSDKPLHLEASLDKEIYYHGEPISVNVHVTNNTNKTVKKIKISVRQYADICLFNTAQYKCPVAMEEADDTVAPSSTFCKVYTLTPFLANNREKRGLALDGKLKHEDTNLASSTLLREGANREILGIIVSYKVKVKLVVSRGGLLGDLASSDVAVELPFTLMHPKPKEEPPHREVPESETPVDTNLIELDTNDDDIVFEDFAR

SMILES	stoichiometry N, βARR1 (βARR1)	Kd (βARR1; 25 °C)	ANGII-induced Ca2+ response (AUC) relative to DMSO (set to 100%) [1]	effect on β-arrestin-dependent ERK1/2 activation [2]	ΔH, βARR1 wild type (βARR1; 25 °C)
C=C1C(=O)C2=CC1CCC(=O)C1(C)CCC(OCC)C(C)(C)C1CC2O (stereo not shown) [Cmpd-46, (Z)-3-ethoxy-6-hydroxy-4,4,13a-trimethyl-9-methylene-1,2,3,4,4a,5,6,9,10,11,12,13a-dodecahydro-7,10-(metheno)benzo[11]annulene-8,13-dione]	1.2	1340 ± 740 nM	356%	significantly attenuated; also recorded: attenuate	–
C=C1C(=O)OC2CC3(C)OC3CCC(C)=CC(OC(C)=O)C12 (stereo not shown) [Cmpd-64, (Z)-4,10a-dimethyl-7-methylene-8-oxo-1a,2,3,6,6a,7,8,9a,10,10a decahydrooxireno[2’,3’:8,9]cyclodeca[1,2-b]furan-6-yl acetate]	0.73	1420 ± 200 nM	490%	significantly attenuated; also recorded: attenuate	–
C=C1C(=O)[C@]23[C@H](O)[C@H]1CC[C@H]2[C@@]12CO[C@]3(O)[C@@H](O)[C@@H]1C(C)(C)CC[C@@H]2O [Cmpd-5, (1S,4aR,5S,6S,6aR,9S,11aS,11bS,14R)-1,5,6,14-tetrahydroxy−4,4-dimethyl-8-methylenedecahydro-1H-6,11b-(epoxymethano)-6a,9-methanocyclohepta[a]naphthalen-7(8H)-one]	1	~400 nM and 362 nM	279%	significantly attenuated; also recorded: attenuate	-13.4 kcal/mol
